Measurements taken from patent US9783505B2, “Substituted diaminopyrimidyl compounds, compositions thereof, and methods of treatment therewith” (Signal Pharmaceuticals, LLC, priority 2013, dated 2017).

Columns and labels:
[1] = biological target: T1, His-PKC-theta (Homo sapiens, UniProt Q04759); assay: PKC-theta Assay (384-well time resolved fluorescence, IMAP TR-FRET); format: biochemical; settings: read-out: Act. Level (IC50 in the PKC-theta Assay)
T1 construct: His; purchased Invitrogen
Method in brief: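 Enzyme at 142 pM phosphorylated 200 nM Fam-S6 peptide with 10 μM ATP in 50 mM HEPES pH 7.6, 10 mM MgCl2, 1 mM DTT for 2 h at room temperature. Product was detected after overnight incubation with IMAP binding reagent and Tb donor by time-resolved FRET.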

[2] = biological target: T2, PKC delta (Homo sapiens, UniProt Q05655); assay: PKC delta Assay (384-well time resolved fluorescence, IMAP TR-FRET); format: biochemical; settings: selectivity for PKC-theta over PKC-delta
T2 construct: purchased Invitrogen
T2 sequence (Q05655 whole entry): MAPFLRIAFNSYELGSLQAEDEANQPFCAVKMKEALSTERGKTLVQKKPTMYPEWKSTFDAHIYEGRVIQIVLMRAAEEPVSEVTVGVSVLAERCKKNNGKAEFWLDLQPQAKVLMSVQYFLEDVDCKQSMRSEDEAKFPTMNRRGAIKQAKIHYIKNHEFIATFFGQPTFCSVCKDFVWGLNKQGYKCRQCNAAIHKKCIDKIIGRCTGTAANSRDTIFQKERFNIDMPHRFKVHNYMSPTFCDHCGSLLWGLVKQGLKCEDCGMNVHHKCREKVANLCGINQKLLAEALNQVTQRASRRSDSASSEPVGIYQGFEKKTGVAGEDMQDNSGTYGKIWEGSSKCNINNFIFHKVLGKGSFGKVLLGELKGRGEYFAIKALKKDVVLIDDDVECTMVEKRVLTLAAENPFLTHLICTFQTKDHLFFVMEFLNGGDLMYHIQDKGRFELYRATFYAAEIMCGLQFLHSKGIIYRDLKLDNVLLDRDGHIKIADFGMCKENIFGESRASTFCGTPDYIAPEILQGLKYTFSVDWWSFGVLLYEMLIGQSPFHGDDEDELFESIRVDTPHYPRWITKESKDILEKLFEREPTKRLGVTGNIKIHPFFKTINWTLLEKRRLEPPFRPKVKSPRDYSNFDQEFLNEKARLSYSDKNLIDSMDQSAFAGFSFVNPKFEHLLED
Method: PKC delta Assay. A 384-well time resolved fluorescence assay was used to monitor PKC delta activity. The PKC delta assay was run in the following assay buffer: 50 mM HEPES pH 7.6, 10 mM MgCl2, 1 mM DTT, 0.01% Triton X-100, 0.01% BSA and 0.1 mM EDTA. To initiate the reaction, 200 nM of Fam-labeled S6-derived peptide (Molecular Devices) and 10 μM of ATP were mixed with 1.5 nM of PKC delta (Invitrogen), for a total assay volume of 25 μL in each well. The assay was incubated at room temperature for 2 hours and terminated using a 60 μL/well mixture of Detection Binding Solution: 70% IMAP Progressive Binding Buffer A, 30% IMAP Progressive Binding Buffer B, 1:600 Progressive Binding Reagent, and 1:400 TR-FRET Tb Donor (Molecular Devices). The assay plates were then incubated overnight at room temperature and read on the Perkin-Elmer Envision Reader.

T1 sequence (Q04759 whole entry): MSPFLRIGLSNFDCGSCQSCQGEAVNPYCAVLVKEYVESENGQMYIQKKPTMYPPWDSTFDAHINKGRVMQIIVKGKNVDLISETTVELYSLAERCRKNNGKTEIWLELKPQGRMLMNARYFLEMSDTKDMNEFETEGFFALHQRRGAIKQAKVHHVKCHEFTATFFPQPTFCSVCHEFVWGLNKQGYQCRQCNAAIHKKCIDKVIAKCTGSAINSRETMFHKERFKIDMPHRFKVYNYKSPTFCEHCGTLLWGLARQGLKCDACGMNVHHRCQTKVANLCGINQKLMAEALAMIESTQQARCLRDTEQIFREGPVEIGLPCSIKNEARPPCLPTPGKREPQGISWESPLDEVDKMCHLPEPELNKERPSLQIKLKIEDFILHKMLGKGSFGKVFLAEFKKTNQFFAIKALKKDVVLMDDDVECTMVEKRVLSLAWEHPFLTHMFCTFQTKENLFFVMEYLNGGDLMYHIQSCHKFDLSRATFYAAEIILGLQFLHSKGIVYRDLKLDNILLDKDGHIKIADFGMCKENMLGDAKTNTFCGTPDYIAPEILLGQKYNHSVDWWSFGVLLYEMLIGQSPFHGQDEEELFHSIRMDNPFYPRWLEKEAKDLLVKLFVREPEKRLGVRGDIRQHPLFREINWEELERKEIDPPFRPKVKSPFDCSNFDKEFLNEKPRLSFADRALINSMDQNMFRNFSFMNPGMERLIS

Row | IC50 [1] [nM] | SMILES | Sel. Level (ratio of IC50 PKC-delta/IC50 PKC-theta) [2]
1 | 100 to 800 | CC1(C)[C@@H](O)C[C@H]1Nc1nc(NCCC2CNc3cc(Cl)ccc32)ncc1C#N (some centres unmarked) [Cmpd 263] | G (selectivity between 5- and 20-fold (selectivity level G))
2 | < 100 | CC1(C)[C@@H](O)CCC[C@H]1Nc1nc(NCCC2C(=O)Nc3ccc(F)cc32)ncc1C#N (some centres unmarked) [Cmpd 316] | F (selectivity of between 20- and 100-fold (selectivity level F))
3 | < 100 | CC1(C)C[C@H](Nc2nc(NCCc3c[nH]c4ccccc34)ncc2C#N)CC[C@@H]1O [Cmpd 203] | F (selectivity of between 20- and 100-fold (selectivity level F))
4 | 100 to 800 | CC1(C)[C@@H](O)CCC[C@H]1Nc1nc(NCCC2C(=O)Nc3cc(F)ccc32)ncc1C#N (some centres unmarked) [Cmpd 312] | G (selectivity between 5- and 20-fold (selectivity level G))
5 | 100 to 800 | CC1(C)[C@H](O)CCC[C@H]1Nc1nc(NCCC2C(=O)Nc3ccccc32)ncc1C#N (some centres unmarked) [Cmpd 306] | H (selectivity level of 5-fold or less (selectivity level H))
6 | 2000 to 10000 | CC1(C)C[C@H](Nc2nc(NCCc3c[nH]c4ccncc34)ncc2C#N)CC[C@@H]1O [Cmpd 284] | H (selectivity level of 5-fold or less (selectivity level H))
7 | < 100 | CCc1ccc2c(c1)C(CCNc1ncc(C#N)c(N[C@@H]3CC[C@H](O)C(C)(C)C3)n1)C(=O)N2 (some centres unmarked) [Cmpd 249] | E (selectivity (Sel. Level=ratio of IC50 PKC-delta/IC50 PKC-theta) of >100-fold (selectivity level E))
8 | 2000 to 10000 | CC1(C)C[C@H](Nc2nc(NCCn3ccc(-c4ccccc4)n3)ncc2C#N)CC[C@@H]1O [Cmpd 209] | H (selectivity level of 5-fold or less (selectivity level H))
9 | 2000 to 10000 | CC1(C)C[C@H](Nc2nc(NCCc3cncnc3)ncc2C#N)CC[C@@H]1O [Cmpd 277] | H (selectivity level of 5-fold or less (selectivity level H))
10 | 2000 to 10000 | Cc1nc2ccccc2n1CCNc1ncc(C#N)c(N[C@@H]2CC[C@H](O)C(C)(C)C2)n1 [Cmpd 207] | H (selectivity level of 5-fold or less (selectivity level H))
11 | 100 to 800 | CC(F)(F)COc1ncncc1CNc1ncc(C#N)c(N[C@@H]2CCC[C@@](C)(O)C2)n1 [Cmpd 286] | F (selectivity of between 20- and 100-fold (selectivity level F))
12 | < 100 | Cc1cccc2c1NC(=O)C2CCNc1ncc(C#N)c(N[C@@H]2CC[C@H](O)C(C)(C)C2)n1 (some centres unmarked) [Cmpd 248] | F (selectivity of between 20- and 100-fold (selectivity level F))
13 | 2000 to 10000 | CC1(C)C[C@H](Nc2nc(NCCn3ccc4ccccc43)ncc2C#N)CC[C@@H]1O [Cmpd 202] | H (selectivity level of 5-fold or less (selectivity level H))
14 | 100 to 800 | CC(F)(F)COc1ncncc1CNc1ncc(C#N)c(N[C@H]2CCC[C@@](C)(O)C2)n1 [Cmpd 287] | F (selectivity of between 20- and 100-fold (selectivity level F))
15 | 100 to 800 | CN1C(=O)C(CCNc2ncc(C#N)c(N[C@@H]3C[C@H](C(N)=O)C3(C)C)n2)c2ccccc21 (some centres unmarked) [Cmpd 325] | F (selectivity of between 20- and 100-fold (selectivity level F))
16 | < 100 | CCc1ncncc1CNc1ncc(C#N)c(NC2CC(C)(O)C2(C)C)n1 (centres unmarked) [Cmpd 65] | 
17 | < 100 | C[C@@H]1CC[C@H](Nc2nc(NCc3cnccc3C(F)(F)F)ncc2C#N)C[C@H]1O [Cmpd 87] | 
18 | 100 to 800 | COc1cccc2[nH]cc(CCNc3ncc(C#N)c(N[C@@H]4CC[C@H](O)C(C)(C)C4)n3)c12 [Cmpd 175] | 
19 | 800 to 2000 | COc1cccc2c(CCNc3ncc(C#N)c(NC4CCC(O)CC4)n3)c[nH]c12 (centres unmarked) [Cmpd 166] | 
20 | 800 to 2000 | CC1(C)[C@H](CO)C[C@@H]1Nc1nc(NCc2c[n+]([O-])ccc2C(F)(F)F)ncc1C#N [Cmpd 145] | 
